Laboratory results reported in PubChem BioAssay AID2060892 (Molecular Pharmacology Branch, DTP, NCI, 2025).

Tested on: HOP-62 complex spheroids with HUVEC/MSC, viability
Assay: Anticancer human tumor HOP-62 cell line growth inhibition [RAS];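 further: spheroids exposed to agents for seven days before readout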;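 on viability, T/C: 100% = DMSO vehicle control viability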
Conditions: for IC50: curve of first compound; for viability, T/C: stronger effect = lower value
Source text: RAS pathway inhibitors in Combinations in Complex Spheroids
A high-throughput screen of multi-cell type tumor spheroids was designed to identify active combinations of RAS pathway inhibitors and targeted small molecules. Complex spheroids include a stromal component modeled by human endothelial cells (HUVEC) and fibroblasts modeled by human mesenchymal stem cells (MSCs). The concentration ranges selected for each drug and investigational agent were based upon clinically achievable concentrations if the clinical Cmax of the agent was known.
Compounds. The drugs and investigational agents: abemaciclib (NSC768073), cobimetinib (NSC768068), divarasib (GDC6063, NSC841802), docetaxel (NSC628503), GDC-1971 (RLY-1971, NSC841576), gemcitabine (NSC613327), inavolisib (NSC800729), ipatasertib (NSC767898), KB-0742 (NSC834161), MRTX-1133 (NSC836407), osimertinib (NSC779217), RMC-4630 (NSC839698), RMC-6236 (NSC851965), RMC-6291 (NSC852671), Ro-3306 (NSC812927), sapanisertib (NSC764658), SN-38 (NSC673596), staurosporine (NSC755774), SY5609 (NSC837396), and tovorafenib (DAY101, NSC766906), were obtained from the National Cancer Institute (NCI) Developmental Therapeutics Program Chemical Repository. The FDA-approved anticancer drug set is available from the NCI Developmental Therapeutics Program. […] The stock solutions were prepared in dimethyl sulfoxide (DMSO, Sigma-Aldrich, St. Louis, MO, cat. D2650) at 800-fold the tested concentration and stored at -70 degrees C prior to their use. All drugs and investigational agents were tested over a range starting from a high concentration at or near the clinical Cmax and decreasing in half-log increments. If the clinical Cmax for an agent had not been determined, the highest concentration tested was 10 microM.
Cell Culture. All cells were maintained in an incubator at 37 degrees C and 5% CO2 with 95% humidity. The PDC lines were cultured according to standard operating procedures established by the NCI PDMR. All PDCs were thawed and cultured in Matrigel-coated flasks prepared with a working solution of 1X Ham's F-12 nutrient mix, without supplementation (Invitrogen, Waltham, MA, cat. 11765054), 100 U/mL penicillin-streptomycin (Invitrogen, cat. 15140122), and 2.5% Matrigel (Corning Inc., Corning, NY, cat. 354248) for the first three passages. The 362531-283-R-J2-PDC and 782815-120-R-J1-PDC lines were cultured in 6C/Colon 1B media, which includes advanced DMEM/F-12 (Thermo Fisher Scientific, cat. 12634028), 10 mM HEPES (Thermo Fisher Scientific, cat. 15630080), 1X GlutaMAX supplement (Thermo Fisher Scientific, cat. 35050061), 0.1 mg/mL primocin (InvivoGen, San Diego, CA, cat. ant-pm-2), 10% defined fetal bovine serum, heat inactivated (HyClone Laboratories Inc., Logan, UT, cat. SH30070.03HI), 50% L-WRN conditioned media (ATCC, cat. CRL-3276), 1.25 mM N-Acetyl-L-cysteine (Sigma-Aldrich, cat. A9165), 10 mM nicotinamide (Sigma-Aldrich, cat. N0636), 1X B-27 supplement (Thermo Fisher Scientific, cat. 17504044), 1X N-2 supplement (Thermo Fisher Scientific, cat. 17502048), 50 ng/mL human EGF (Thermo Fisher Scientific, cat. PHG0311), and 10 microM Y-27632 dihydrochloride (Tocris Bioscience, cat. 1254). The K12877-001-R-J1-PDC line was cultured in 6I media, which includes all 6C/Colon 1B media plus 10 ng/mL human FGF-10 (PeproTech, cat. 100-26), 1 ng/mL human FGF-2 (PeproTech, cat. 100-18B), 1 µM prostaglandin E2 (Tocris Bioscience, cat. 2296), […] hydrocortisone (Sigma-Aldrich, cat. H4001), and […] bovine insulin (Sigma-Aldrich, cat. I6634). The K86415-001-R-J1-PDC line was cultured in 6D media, which includes all 6C/Colon 1B media components minus the L-WRN conditioned media. The 485176-168-R4-J1-PDC was cultured in PANC media, which includes all 6C/Colon 1B media plus 100 ng/mL human FGF-10 (PeproTech, cat. 100-26), 500 nM SB-431542 (Selleckchem, cat. S1067), and 10 nM gastrin (Tocris Bioscience, cat. 3006). […]

[1] = second compound 0.0316 µM, first compound 0.0316 µM
[2] = second compound 0.0316 µM, first compound 0.1 µM
[3] = second compound 0.0316 µM, first compound 0.316 µM
[4] = second compound 0.0316 µM, first compound 1 µM
[5] = second compound 0.0316 µM, first compound 3.16 µM
[6] = second compound 0.0316 µM, first compound 10 µM
[7] = second compound 0.1 µM, first compound 0.0316 µM
[8] = second compound 0.1 µM, first compound 0.1 µM
[9] = second compound 0.1 µM, first compound 0.316 µM
[10] = second compound 0.1 µM, first compound 1 µM
[11] = second compound 0.1 µM, first compound 3.16 µM
[12] = second compound 0.1 µM, first compound 10 µM
[13] = second compound 0.316 µM, first compound 0.0316 µM
[14] = second compound 0.316 µM, first compound 0.1 µM
[15] = second compound 0.316 µM, first compound 0.316 µM
[16] = second compound 0.316 µM, first compound 1 µM
[17] = second compound 0.316 µM, first compound 3.16 µM
[18] = second compound 0.316 µM, first compound 10 µM
[19] = second compound 1 µM, first compound 0.0316 µM
[20] = second compound 1 µM, first compound 0.1 µM
[21] = second compound 1 µM, first compound 0.316 µM
[22] = second compound 1 µM, first compound 1 µM
[23] = second compound 1 µM, first compound 3.16 µM
[24] = second compound 1 µM, first compound 10 µM
[25] = second compound 3.16 µM, first compound 0.0316 µM
[26] = second compound 3.16 µM, first compound 0.1 µM
[27] = second compound 3.16 µM, first compound 0.316 µM
[28] = second compound 3.16 µM, first compound 1 µM
[29] = second compound 3.16 µM, first compound 3.16 µM
[30] = second compound 3.16 µM, first compound 10 µM
[31] = second compound 10 µM, first compound 0.0316 µM
[32] = second compound 10 µM, first compound 0.1 µM
[33] = second compound 10 µM, first compound 0.316 µM
[34] = second compound 10 µM, first compound 1 µM
[35] = second compound 10 µM, first compound 3.16 µM
[36] = second compound 10 µM, first compound 10 µM

SMILES: CC(C)NCC(C(=O)N1CCN(c2ncnc3c2C(C)CC3O)CC1)c1ccc(Cl)cc1 (stereo unspecified) + C#Cc1c(F)ccc2cc(O)cc(-c3ncc4c(N5CC6CCC(C5)N6)nc(OCC56CCCN5CC(F)C6)nc4c3F)c12
- IC50 (second compound 0.0316 µM): 2440 nM
- IC50 (second compound 0.1 µM): 2810 nM
- IC50 (second compound 0.316 µM): 2730 nM
- IC50 (second compound 1 µM): 1720 nM
- IC50 (second compound 3.16 µM): 676 nM
- IC50 (second compound 10 µM): 62.1 nM
- viability, T/C [1]: 105%
- viability, T/C [2]: 113%
- viability, T/C [3]: 92.2%
- viability, T/C [4]: 71.2%
- viability, T/C [5]: 44.6%
- viability, T/C [6]: 28.3%
- viability, T/C [7]: 112%
- viability, T/C [8]: 105%
- viability, T/C [9]: 99.2%
- viability, T/C [10]: 70%
- viability, T/C [11]: 49.8%
- viability, T/C [12]: 28.3%
- viability, T/C [13]: 105%
- viability, T/C [14]: 104%
- viability, T/C [15]: 96.3%
- viability, T/C [16]: 73.1%
- viability, T/C [17]: 47.5%
- viability, T/C [18]: 27%
- viability, T/C [19]: 108%
- viability, T/C [20]: 100%
- viability, T/C [21]: 86.5%
- viability, T/C [22]: 59.9%
- viability, T/C [23]: 38.5%
- viability, T/C [24]: 23.5%
- viability, T/C [25]: 72.2%
- viability, T/C [26]: 75%
- viability, T/C [27]: 63.9%
- viability, T/C [28]: 41.6%
- viability, T/C [29]: 26.1%
- viability, T/C [30]: 16.1%
- viability, T/C [31]: 54.3%
- viability, T/C [32]: 47%
- viability, T/C [33]: 35.2%
- viability, T/C [34]: 23%
- viability, T/C [35]: 13.7%
- viability, T/C [36]: 9.15%

SMILES: CC(C)n1nc(-c2ccc3oc(N)nc3c2)c2c(N)ncnc21 + C#Cc1c(F)ccc2cc(O)cc(-c3ncc4c(N5CC6CCC(C5)N6)nc(OCC56CCCN5CC(F)C6)nc4c3F)c12
- IC50 (second compound 0.0316 µM): 27.8 nM
- IC50 (second compound 0.1 µM): 28.1 nM
- IC50 (second compound 0.316 µM): 19.5 nM
- IC50 (second compound 1 µM): 12.4 nM
- IC50 (second compound 3.16 µM): 3.75 nM
- IC50 (second compound 10 µM): < 0.316 nM
- viability, T/C (second compound 0.0316 µM, first compound 0.000316 µM): 99.2%
- viability, T/C (second compound 0.0316 µM, first compound 0.001 µM): 99%
- viability, T/C (second compound 0.0316 µM, first compound 0.00316 µM): 86.8%
- viability, T/C (second compound 0.0316 µM, first compound 0.01 µM): 73.7%
- viability, T/C [1]: 46.3%
- viability, T/C [2]: 28.3%
- viability, T/C (second compound 0.1 µM, first compound 0.000316 µM): 110%
- viability, T/C (second compound 0.1 µM, first compound 0.001 µM): 94.9%
- viability, T/C (second compound 0.1 µM, first compound 0.00316 µM): 83.9%
- viability, T/C (second compound 0.1 µM, first compound 0.01 µM): 69.6%
- viability, T/C [7]: 46.9%
- viability, T/C [8]: 26.7%
- viability, T/C (second compound 0.316 µM, first compound 0.000316 µM): 106%
- viability, T/C (second compound 0.316 µM, first compound 0.001 µM): 99.3%
- viability, T/C (second compound 0.316 µM, first compound 0.00316 µM): 79.3%
- viability, T/C (second compound 0.316 µM, first compound 0.01 µM): 63.1%
- viability, T/C [13]: 41.1%
- viability, T/C [14]: 26.5%
- viability, T/C (second compound 1 µM, first compound 0.000316 µM): 106%
- viability, T/C (second compound 1 µM, first compound 0.001 µM): 89.7%
- viability, T/C (second compound 1 µM, first compound 0.00316 µM): 70%
- viability, T/C (second compound 1 µM, first compound 0.01 µM): 54.6%
- viability, T/C [19]: 36.1%
- viability, T/C [20]: 26.6%
- viability, T/C (second compound 3.16 µM, first compound 0.000316 µM): 76.9%
- viability, T/C (second compound 3.16 µM, first compound 0.001 µM): 67.2%
- viability, T/C (second compound 3.16 µM, first compound 0.00316 µM): 47.6%
- viability, T/C (second compound 3.16 µM, first compound 0.01 µM): 37.5%
- viability, T/C [25]: 35.6%
- viability, T/C [26]: 14.4%
- viability, T/C (second compound 10 µM, first compound 0.000316 µM): 45.7%
- viability, T/C (second compound 10 µM, first compound 0.001 µM): 32.8%
- viability, T/C (second compound 10 µM, first compound 0.00316 µM): 28.2%
- viability, T/C (second compound 10 µM, first compound 0.01 µM): 21.6%
- viability, T/C [31]: 13%
- viability, T/C [32]: 11.6%

SMILES: C[C@@H](NC(=O)c1ncnc(N)c1Cl)c1ncc(C(=O)Nc2cc(C(F)(F)F)c(Cl)cn2)s1 + C#Cc1c(F)ccc2cc(O)cc(-c3ncc4c(N5CC6CCC(C5)N6)nc(OCC56CCCN5CC(F)C6)nc4c3F)c12
- IC50 (second compound 0.0316 µM): > 10000 nM
- IC50 (second compound 0.1 µM): > 10000 nM
- IC50 (second compound 0.316 µM): > 10000 nM
- IC50 (second compound 1 µM): > 10000 nM
- IC50 (second compound 3.16 µM): > 10000 nM
- IC50 (second compound 10 µM): 457 nM
- viability, T/C [1]: 109%
- viability, T/C [2]: 105%
- viability, T/C [3]: 101%
- viability, T/C [4]: 102%
- viability, T/C [5]: 92.6%
- viability, T/C [6]: 78.6%
- viability, T/C [7]: 110%
- viability, T/C [8]: 113%
- viability, T/C [9]: 105%
- viability, T/C [10]: 102%
- viability, T/C [11]: 96.8%
- viability, T/C [12]: 75.4%
- viability, T/C [13]: 114%
- viability, T/C [14]: 101%
- viability, T/C [15]: 96.6%
- viability, T/C [16]: 104%
- viability, T/C [17]: 97.6%
- viability, T/C [18]: 62.8%
- viability, T/C [19]: 117%
- viability, T/C [20]: 97.9%
- viability, T/C [21]: 91.1%
- viability, T/C [22]: 94.1%
- viability, T/C [23]: 88.6%
- viability, T/C [24]: 65.4%
- viability, T/C [25]: 83.2%
- viability, T/C [26]: 78.7%
- viability, T/C [27]: 77.1%
- viability, T/C [28]: 77.4%
- viability, T/C [29]: 73.4%
- viability, T/C [30]: 58.4%
- viability, T/C [31]: 51.9%
- viability, T/C [32]: 46.8%
- viability, T/C [33]: 54.1%
- viability, T/C [34]: 49.9%
- viability, T/C [35]: 43.4%
- viability, T/C [36]: 33.7%
